Literature values in patent publication US6383817B2, “Cadmium is a risk factor for human pancreatic cancer” (Wake Forest University, priority 1999, dated 2002).
Where two headings read alike, the source gives them in different places.

Columns and labels:
[1] = system: Louisiana red swamp crayfish (Procambarus clarkii); conditions: day 14; crayfish fed plants grown for 7 days in 0.00224 ppb cadmium
[2] = system: rats; conditions: repeated injections to rats
[3] = system: pancreatic metallothionein; conditions: rats
[4] = not given; remark: listed apart in the source
[5] = system: mice; conditions: injection of 4 mg/kg, relative to saline
[6] = system: Wistar rats; conditions: injection, vs. 2.2% control

| Compound | Accumulation of cadmium in hepatopancreata [1] | rats with hepatocytic foci in the pancreata [2] | increase in pancreatic metallothionein ([3]; injection of 4 mg/kg) | increase in pancreatic metallothionein ([3]; injection of 8 mg/kg) | SMR (x100), pancreatic cancer deaths (Elinder et al. (1985), male cadmium-nickel battery workers, Oskarshamn, Sweden) | SMR (x100), pancreatic cancer deaths (Järup et al. (1998), battery workers, Kalmar, Sweden, females) | SMR (x100), pancreatic cancer deaths (Järup et al. (1998), battery workers, Kalmar, Sweden, males) | SMR (x100), pancreatic cancer deaths (Sorahan et al. (1995), male copper cadmium alloy workers, England and Wales) | correlation (r) between estimated dietary intake of cadmium and pancreatic cancer mortality ([4]; men) | correlation (r) between estimated dietary intake of cadmium and pancreatic cancer mortality ([4]; women) | increase in the incorporation of [3H] thymidine in the pancreas [5] | incidence of pancreatic islet cell tumors [6] |
| --- | --- | --- | --- | --- | --- | --- | --- | --- | --- | --- | --- | --- |
| [Cd] [cadmium] | 4,657.6 ppb | more than 93% | 9.8 fold | 17.9 fold | 130 | 220 | 148 | 218 | 0.48 | 0.25 | – | – |
| [Cl][Cd][Cl] [cadmium chloride] | – | – | – | – | – | – | – | – | – | – | 2.5 fold | 8.5% |
